Experimental findings from patent US11504368B2, “2,6-diamino-3,4-dihydropyrimidin-4-one derivatives and use thereof in therapy” (THOMAS HELLEDAYS STIFTELSE FÖR MEDICINSK FORSKNING, priority 2018, dated 2022) are described below.

pEC50, pIC50: −log10 of the molar value. Structures can show the parent of a compound that is named as a salt.

Assay [1] concerns the target MTHFD2 (Homo sapiens (Human), UniProt P13995). Put plainly: Inhibition of MTHFD2 (NAD(P)H-Glo luminescence). Type of assay: biochemical. As to conditions: 3.4 nmol/L MTHFD2, 5 μmol/L folitixorin, 250 μmol/L NAD+; mean of at least 3 independent measurements. How it is done: DMSO was used as negative control. The serial dilution in DMSO, from compound DMSO stock solution, was created by dispensing from a 384-well low dead volume microplate (LP-0200, Labcyte) and a 384-well polypropylene microplate 2.0 (PP-0200, Labcyte). A total of 2.5 μL MTHFD2 was preincubated with compound or DMSO for 10 min. The enzymatic reaction was initiated by adding 2.5 μL folitixorin (F680350, Toronto Research Chemicals). For background control, 5 μL buffer was added to the well. […] The final concentrations of all reagents in a total assay volume of 5 μL per well were 50 mmol/L Tris-HCl at pH 8.0, 100 mmol/L NaCl, 5 mmol/L MgCl2, 25 mmol/L Na3PO4 at pH 8.0, 0.005% (v/v) Tween-20, and 2 mmol/L 2-mercaptoethanol. After 15 min reaction time, 5 μL NAD(P)H-Glo detection reagent (G9061 or G9062, Promega) was dispensed in all wells and the plate was incubated for 60 min. Luminescence was measured on a plate reader (Envision, PerkinElmer or Sense, Hidex). The light signal produced is proportional to the amount of NAD(P)H in the sample. IC50 values were determined by fitting a four parameter sigmoidal curve model using XLfit (IDBS). Reported IC50 values are the mean of at least 3 independent measurements.

Assay [2] has as its system HL-60 cells. Put plainly: Cancer cell viability assay (HL-60, resazurin). As to conditions: Homo sapiens, 96 h, mean of at least 3 independent measurements, read-out: HL60 cell proliferation inhibition EC50. Type of assay: cell-based. Here is the method:
HL-60 cells (human promyelocytic leukemia cells) were seeded in a 384-well plate at a density of 2,000 cells per well in 50 μL induction medium and treated with vehicle (DMSO) or an 11-point concentration range with 3-fold dilution in concentration of compound. Each assay point was run in duplicate. Wells without cells but with DMSO were used as negative controls. The cells were left to proliferate over a period of 96 h, in an incubator at 37° C. and 5% CO2, followed by an addition of 10 μL […] resazurin sodium salt (199303, Sigma-Aldrich) dissolved in DPBS (14190, Gibco). After 4 h of incubation at 37° C. and 5% CO2, the fluorescent signal was measured using an excitation wavelength of 544 nm and an emission wavelength of 595 nm in a Hidex Sense plate reader. Cell plates were incubated in boxes with damp paper tissues to avoid evaporation. All additions, except compound and DMSO, were done using the Multidrop Combi (Thermo Fisher Scientific). DMSO and compounds were pre-dispensed with an Echo 550 Liquid handler (Labcyte) in black, clear bottom, TC-treated and sterile 384-well plates (3764, Corning). Growth medium consisted of RPMI 1640 GlutaMAX (61870, Gibco), 10% (v/v) FBS (10500, Gibco), and 1% (v/v) P/S (15070, Gibco). Induction medium consisted of RPMI 1640 GlutaMAX (61870, Gibco), 5% (v/v) FBS (10500, Gibco), and 1% (v/v) P/S (15070, Gibco). EC50 values were determined by fitting a four parameter sigmoidal curve model using XLfit (IDBS). Reported EC50 values are the mean of at least 3 independent measurements.
(In general: Alamar Blue is a resazurin reagent that responds to reducing activity.)

Chain of MTHFD2 (P13995 36-350): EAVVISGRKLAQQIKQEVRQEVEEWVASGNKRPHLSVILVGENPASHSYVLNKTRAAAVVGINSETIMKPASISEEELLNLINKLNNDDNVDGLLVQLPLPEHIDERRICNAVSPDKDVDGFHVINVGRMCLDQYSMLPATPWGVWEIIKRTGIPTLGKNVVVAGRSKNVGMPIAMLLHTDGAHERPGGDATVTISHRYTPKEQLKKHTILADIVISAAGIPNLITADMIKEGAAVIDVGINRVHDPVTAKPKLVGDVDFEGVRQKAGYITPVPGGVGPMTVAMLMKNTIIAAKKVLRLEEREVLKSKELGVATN

What is called pIC50 is −log10 of the IC50, conventionally taken in molar units. A higher pIC50 goes with a small IC50. `Nc1nc(N)c(NC(=O)Nc2ccc(C(=O)N[C@@H](CCC(=O)O)C(=O)O)nc2)c(=O)[nH]1` [Example 1, (2S)-2-[(5-{[(2,4-diamino-6-oxo-1,6-dihydropyrimidin-5-yl)carbamoyl]amino}pyridin-2-yl)formamido]pentanedioic acid; trifluoroacetic acid] had a pIC50 in assay [1] of 7.62. Besides, the pEC50 in assay [2] is 7.12.
The matching figures for `Nc1nc(N)c(NC(=O)Nc2ccc(C(=O)N[C@@H](Cc3ccccc3)C(=O)O)nc2)c(=O)[nH]1` [Example 2, (2S)-2-[(5-{[(2,4-diamino-6-oxo-1,6-dihydropyrimidin-5-yl)carbamoyl]amino}pyridin-2-yl)formamido]-3-phenylpropanoic acid; trifluoroacetic acid]: 7.17 and 8.00.
In turn, `CC(C)[C@H](NC(=O)c1ccc(NC(=O)Nc2c(N)nc(N)[nH]c2=O)cn1)C(=O)O` [Example 3, (2S)-2-[(5-{[(2,4-diamino-6-oxo-1,6-dihydropyrimidin-5-yl)carbamoyl]amino}pyridin-2-yl)formamido]-3-methylbutanoic acid; trifluoroacetic acid] showed a pIC50 in assay [1] of 7.72. The pEC50 in assay [2] was 7.51.
The matching figures for `Nc1nc(N)c(NC(=O)Nc2ccc(C(=O)N[C@@H](CCc3nnn[nH]3)C(=O)O)nc2)c(=O)[nH]1` [Example 4, (2S)-2-[(5-{[(2,4-diamino-6-oxo-1,6-dihydropyrimidin-5-yl)carbamoyl]amino}pyridin-2-yl)formamido]-4-(1H-1,2,3,4-tetrazol-5-yl)butanoic acid]: 7.92 and 7.62.
The matching figures for `Nc1nc(N)c(NC(=O)Nc2cnc(C(=O)N[C@@H](CCC(=O)O)C(=O)O)c(Cl)c2)c(=O)[nH]1` [Example 5, (2S)-2-[(3-chloro-5-{[(2,4-diamino-6-oxo-1,6-dihydropyrimidin-5 yl)carbamoyl]amino}pyridin-2-yl)formamido]pentanedioic acid]: 7.82 and 7.03.
The matching figures for `Nc1nc(N)c(NC(=O)Nc2cnc(C(=O)N[C@@H](CCC(=O)O)C(=O)O)c(F)c2)c(=O)[nH]1` [Example 6, (2S)-2-[(5-{[(2,4-diamino-6-oxo-1,6-dihydropyrimidin-5-yl)carbamoyl]amino}-3-fluoropyridin-2-yl)formamido]pentanedioic acid]: 8.00 and 7.00.
On to `Nc1nc(N)c(CC(=O)Nc2ccc(C(=O)N[C@@H](CCC(=O)O)C(=O)O)nc2)c(=O)[nH]1` [Example 7, (2S)-2-((5-[2-(2,4-diamino-6-oxo-1,6-dihydropyrimidin-5-yl)acetamido]pyridin-2-yl)formamido)pentanedioic acid hydrochloride], for which the pIC50 in assay [1] is 6.81. In addition, the pEC50 in assay [2] is 7.77.
With `Nc1nc(N)c(CC(=O)Nc2ccc(C(=O)N[C@@H](Cc3ccccc3)C(=O)O)nc2)c(=O)[nH]1` [Example 8, (2S)-2-({5-[2-(2,4-diamino-6-oxo-1,6-dihydropyrimidin-5-yl)acetamido]pyridin-2-yl}formamido)-3-phenylpropanoic acid], the pIC50 in assay [1] is 6.51. In assay [2], the pEC50 was 7.21.
`Nc1nc(N)c(CC(=O)Nc2ccc(C(=O)N[C@@H](CCc3nnn[nH]3)C(=O)O)nc2)c(=O)[nH]1` [Example 9, (2S)-2-((5-[2-(2,4-diamino-6-oxo-1,6-dihydropyrimidin-5-yl)acetamido]pyridin-2-yl)formamido)-4-(1H-1,2,3,4-tetrazol-5-yl)butanoic acid] gave a pIC50 in assay [1] of 7.28. Besides, in assay [2], the pEC50 was 7.46.
`Nc1nc(N)c(CC(=O)Nc2cnc(C(=O)N[C@@H](CCC(=O)O)C(=O)O)c(F)c2)c(=O)[nH]1` [Example 10, (2S)-2-((5-[2-(2,4-diamino-6-oxo-1,6-dihydropyrimidin-5-yl)acetamido]-3-fluoropyridin-2-yl)formamido)pentanedioic acid]: the pEC50 in assay [2] was 7.85.
`Nc1nc(N)c(NC(=O)Nc2ccc(C(=O)N[C@@H](CC3CCCC3)C(=O)O)nc2)c(=O)[nH]1` [Example 11, (2S)-3-cyclopentyl-2-[(5-{[(2,4-diamino-6-oxo-1,6-dihydropyrimidin-5-yl)carbamoyl]amino}pyridin-2-yl)formamido]propanoic acid] gave a pIC50 in assay [1] of 7.34. In addition, the pEC50 in assay [2] is 7.43.
The matching figures for `Nc1nc(N)c(NC(=O)Nc2ccc(C(=O)N[C@H](C(=O)O)C3CCCCC3)nc2)c(=O)[nH]1` [Example 12, (2S)-2-cyclohexyl-2-[(5-{[(2,4-diamino-6-oxo-1,6-dihydropyrimidin-5-yl)carbamoyl]amino}pyridin-2-yl)formamido]acetic acid]: 7.77 and 8.15.
The matching figures for `CC(C)[C@H](NC(=O)c1ccc(NC(=O)Cc2c(N)nc(N)[nH]c2=O)cn1)C(=O)O` [Example 13, (2S)-2-({5-[2-(2,4-diamino-6-oxo-1,6-dihydropyrimidin-5-yl)acetamido]pyridin-2-yl}formamido)-3-methylbutanoic acid]: 6.99 and 6.67.
On to `Nc1nc(N)c(NC(=O)Nc2ccc(C(=O)N[C@@H](CCc3ccccc3)C(=O)O)nc2)c(=O)[nH]1` [Example 14, (2S)-2-[(5-{[(2,4-diamino-6-oxo-1,6-dihydropyrimidin-5-yl)carbamoyl]amino}pyridin-2-yl)formamido]-4-phenylbutanoic acid], for which the pEC50 in assay [2] is 6.73.
In assay [1], `Nc1nc(N)c(NC(=O)Nc2ccc(C(=O)N[C@H](C(=O)O)c3ccccc3)nc2)c(=O)[nH]1` [Example 15, (2S)-2-[(5-{[(2,4-diamino-6-oxo-1,6-dihydropyrimidin-5-yl)carbamoyl]amino}pyridin-2-yl)formamido]-2-phenylacetic acid] showed a pIC50 of 7.64. In assay [2], the pEC50 was 6.33.
For the molecule `Nc1nc(N)c(NC(=O)Nc2ccc(C(=O)N[C@@H](CCC(=O)NS(=O)(=O)c3ccccc3)C(=O)O)nc2)c(=O)[nH]1` [Example 16, (2S)-4-[(benzenesulfonyl)carbamoyl]-2-[(5-{[(2,4-diamino-6-oxo-1,6-dihydropyrimidin-5-yl)carbamoyl]amino}pyridin-2-yl)formamido]butanoic acid], the pIC50 in assay [1] is 7.96. The pEC50 in assay [2] is 6.71.
Regarding `Nc1nc(N)c(NC(=O)Nc2ccc(C(=O)N[C@@H](CCCC(=O)O)C(=O)O)nc2)c(=O)[nH]1` [Example 17, (2S)-2-[(5-{[(2,4-diamino-6-oxo-1,6-dihydropyrimidin-5-yl)carbamoyl]amino}pyridin-2-yl)formamido]hexanedioic acid], the pIC50 in assay [1] was 7.49. Moreover, in assay [2], the pEC50 is 6.70.
Turning to `Nc1nc(N)c(NC(=O)Nc2ccc(C(=O)N[C@@H](CCC(=O)O)C(=O)O)nc2OC2CC2)c(=O)[nH]1` [Example 18, (2S)-2-[(6-cyclopropoxy-5-{[(2,4-diamino-6-oxo-1,6-dihydropyrimidin-5-yl)carbamoyl]amino}pyridin-2-yl)formamido]pentanedioic acid], the pIC50 in assay [1] was 8.52. The pEC50 in assay [2] is 7.35.
The matching figures for `Nc1nc(N)c(CC(=O)Nc2cnc(C(=O)N[C@@H](CCC(=O)O)C(=O)O)c(Cl)c2)c(=O)[nH]1` [Example 19, (2S)-2-((3-chloro-5-[2-(2,4-diamino-6-oxo-1,6-dihydropyrimidin-5-yl)acetamido]pyridin-2-yl)formamido)pentanedioic acid]: 7.14 and 8.10.
The matching figures for `Cc1cc(NC(=O)Cc2c(N)nc(N)[nH]c2=O)cnc1C(=O)N[C@@H](CCC(=O)O)C(=O)O` [Example 20, (2S)-2-({5-[2-(2,4-diamino-6-oxo-1,6-dihydropyrimidin-5-yl)acetamido]-3-methylpyridin-2-yl}formamido)pentanedioic acid]: 6.04 and 7.47.
